In general, MIC refers to the smallest concentration in the dilution series that meets the test's criterion for growth inhibition. A low value points to a more susceptible organism. One may read the HC50 as the concentration that lyses half of the red blood cells. Lower therefore signals stronger haemolysis.

The test system of one data set is Enterococcus faecalis. The data set can be described thus: Antibacterial activity against vancomycin susceptible Enterococcus faecalis ATCC29212 by broth microdilution assay. Format: functional. (In general: Dilution methods test growth across graded concentrations, often in twofold steps.)
Data set [1] deals with Staphylococcus aureus. The experiment in a line: Antibacterial activity against erythromycin susceptible Staphylococcus aureus ATCC25923 by broth microdilution assay. Format: functional.
The next data set has as its system Klebsiella pneumoniae. The experiment in a line: Antibacterial activity against Klebsiella pneumoniae ATCC10031 by broth microdilution assay. In kind it is functional.
The test system of data set [2] is Staphylococcus aureus. The experiment in a line: Antibacterial activity against penicillin-resistant Staphylococcus aureus ATCC31007 by broth microdilution assay. Format: functional.
For data set [3], the system named is Staphylococcus epidermidis. The data set can be described thus: Antibacterial activity against erythromycin-susceptible Staphylococcus epidermidis ATCC12228 by broth microdilution assay. Format: functional.
A further data set relates to Escherichia coli. The experiment in a line: Antibacterial activity against penicillin-susceptible Escherichia coli ATCC25922 by broth microdilution method. Format: functional.
Data set [4] in a line: Hemolytic activity in red blood cells (unknown origin). In kind it is toxicity, cell-based, Erythrocyte.
In the next data set the test system is Bacillus subtilis. The data set can be described thus: Antibacterial activity against penicillin-susceptible Bacillus subtilis ATCC9372 by broth microdilution assay. Format: functional.
Data set [5] deals with Staphylococcus aureus. The data set can be described thus: Antibacterial activity against penicillin-resistant Staphylococcus aureus ATCC43300 by broth microdilution assay. Format: functional.
The next data set concerns Pseudomonas aeruginosa. The experiment in a line: Antibacterial activity against penicillin-susceptible Pseudomonas aeruginosa ATCC27853 by broth microdilution method. In kind it is functional.
The subject of the next data set is Acinetobacter baumannii. The experiment in a line: Antibacterial activity against Acinetobacter baumannii ATCC19606 by broth microdilution assay. In kind it is functional.
Data set [6] is described as follows: Selectivity index, ratio of HC50 for hemolytic activity in red blood cells (unknown origin) to MIC for antibacterial activity against penicillin-resistant Staphylococcus aureus ATCC43300. In kind it is toxicity, cell-based, RBC. The following applies: read-out: Selectivity Index.

Consider `CCCCCCCCCCCC[N+](C)(C)CCCOc1ccc(/C=C/C(=O)c2ccc(OCCC[N+](C)(C)CCCCCCCCCCCC)cc2)cc1.[Br-].[Br-]`, for which the MIC is more than 128 µg/mL against Enterococcus faecalis; 16 µg/mL in the data set with Staphylococcus aureus [1]; more than 128 µg/mL with Klebsiella pneumoniae; 16 µg/mL in the data set with Staphylococcus aureus [2]; 64 µg/mL in [3]; more than 128 µg/mL against Escherichia coli. For the same molecule, the minimal inhibitory concentration (MIC) against Bacillus subtilis, in the data set with Staphylococcus aureus [5], in the data set with Pseudomonas aeruginosa and in the data set on Acinetobacter baumannii was more than 128 µg/mL in each case. The 50% haemolytic concentration (HC50) in data set [4] is 21.2 µg/mL. In addition, the selectivity ratio in data set [6] was less than 0.2.

For `CCCCCCCC[N+](C)(C)CCCOc1ccc(C(=O)/C=C/c2ccccc2)cc1.[Br-]`, the MIC with Enterococcus faecalis came out at 8 µg/mL; in the data set on Staphylococcus aureus [1] it was 1 µg/mL; against Klebsiella pneumoniae, 4 µg/mL; against Staphylococcus aureus [2], 4 µg/mL; in data set [3] it was 1 µg/mL; in the data set with Escherichia coli, 64 µg/mL. Moreover, the minimum inhibitory concentration (MIC) came to 2 µg/mL in the data set with Bacillus subtilis, 1 µg/mL in the data set with Staphylococcus aureus [5], 64 µg/mL against Pseudomonas aeruginosa and 8 µg/mL against Acinetobacter baumannii. Moreover, the HC50 in data set [4] came out at 17.2 µg/mL. Moreover, the selectivity ratio in data set [6] was 17.2.

As for `CCCCCCNC(=O)C[N+](C)(C)CCCOc1ccc(/C=C/C(=O)c2ccc(OCCC[N+](C)(C)CC(=O)NCCCCCC)cc2)cc1.[Br-].[Br-]`, the minimal inhibitory concentration (MIC) against Enterococcus faecalis stood at 2 µg/mL; in the data set with Staphylococcus aureus [1] it was 1 µg/mL; against Klebsiella pneumoniae it was 4 µg/mL; with Staphylococcus aureus [2], 1 µg/mL; in data set [3], 1 µg/mL; with Escherichia coli it was 2 µg/mL. For the same molecule, the minimal inhibitory concentration (MIC) with Bacillus subtilis was 2 µg/mL; in the data set with Staphylococcus aureus [5], 1 µg/mL; in the data set with Pseudomonas aeruginosa, 32 µg/mL; in the data set on Acinetobacter baumannii, 32 µg/mL. This molecule returned an HC50 in data set [4] of 234 µg/mL. Further, the selectivity ratio in data set [6] was found to be 329.

As for `O=C(/C=C/c1ccccc1)c1ccc(OCCC[n+]2ccc(NC(=O)c3ccc4ccccc4c3)cc2)cc1.[Br-]`, the minimal inhibitory concentration (MIC) (with Enterococcus faecalis; against Staphylococcus aureus [1]; with Klebsiella pneumoniae; in the data set on Staphylococcus aureus [2]; in [3]; against Escherichia coli) was more than 128 µg/mL in each case. The minimal inhibitory concentration (MIC) in the data set with Bacillus subtilis, in the data set with Staphylococcus aureus [5], against Pseudomonas aeruginosa and in the data set on Acinetobacter baumannii was more than 128 µg/mL each time. The same molecule had an HC50 in data set [4] of more than 1280 µg/mL. In addition, the selectivity ratio in data set [6] was more than 10.

As to `CCCCCCCCCC[N+](C)(C)CCCOc1ccc(/C=C/C(=O)c2ccc(OCCC[N+](C)(C)CCCCCCCCCC)cc2)cc1.[Br-].[Br-]`, the minimal inhibitory concentration (MIC) worked out at 2 µg/mL with Enterococcus faecalis; 8 µg/mL in the data set on Staphylococcus aureus [1]; 64 µg/mL in the data set with Klebsiella pneumoniae; 2 µg/mL against Staphylococcus aureus [2]; 1 µg/mL in data set [3]; 8 µg/mL against Escherichia coli. For the same molecule, the MIC in the data set on Bacillus subtilis turned out to be 2 µg/mL; in the data set on Staphylococcus aureus [5] it was 2 µg/mL; against Pseudomonas aeruginosa, 32 µg/mL; with Acinetobacter baumannii, 128 µg/mL. The molecule further gave an HC50 in [4] of 44 µg/mL. Besides, in data set [6], the selectivity ratio amounted to 22.

On to `CCCCCC[N+](C)(C)CCCCCCCOc1ccc(C(=O)/C=C/c2ccccc2)cc1.[Br-]`, for which the MIC with Enterococcus faecalis was 4 µg/mL; with Staphylococcus aureus [1] it was 2 µg/mL; in the data set with Klebsiella pneumoniae, 16 µg/mL; against Staphylococcus aureus [2] it was 4 µg/mL; in data set [3] it was 2 µg/mL; against Escherichia coli, more than 128 µg/mL. Also, the MIC in the data set on Bacillus subtilis is 2 µg/mL; in the data set on Staphylococcus aureus [5], 4 µg/mL; against Pseudomonas aeruginosa, more than 128 µg/mL; against Acinetobacter baumannii it was 16 µg/mL. The same molecule had a 50% haemolytic concentration (HC50) in data set [4] of 61.6 µg/mL. Further, the selectivity ratio in [6] amounted to 15.4.

As for `CCCCCCCCCCNC(=O)C[N+](C)(C)CCCOc1ccc(/C=C/C(=O)c2ccc(OCCC[N+](C)(C)CC(=O)NCCCCCCCCCC)cc2)cc1.[Br-].[Br-]`, the MIC in the data set on Enterococcus faecalis was more than 128 µg/mL; in the data set on Staphylococcus aureus [1], 32 µg/mL; in the data set on Klebsiella pneumoniae it was more than 128 µg/mL; against Staphylococcus aureus [2], 16 µg/mL; in data set [3], 64 µg/mL; against Escherichia coli it was more than 128 µg/mL. In addition, the minimal inhibitory concentration (MIC) is 32 µg/mL with Bacillus subtilis, 64 µg/mL with Staphylococcus aureus [5], more than 128 µg/mL against Pseudomonas aeruginosa and 128 µg/mL with Acinetobacter baumannii. For the same molecule, in data set [4], the concentration for 50% haemolysis (HC50) was determined as 66.1 µg/mL. Besides, the selectivity ratio in [6] worked out at 1.

These data come from ChEMBL document CHEMBL6092194, “Development of membrane-targeting chalcone derivatives as antibacterial agents against multidrug-resistant bacteria” (Eur J Med Chem, 2024).
